{"source": "patent US9920383B2", "about": "“Active substances for increasing the stress defense in plants to abiotic stress, and methods of finding them” (Bayer Intellectual Property GMBH, priority 2005, dated 2018)", "assay_type_in_all_cases": "in vivo, maize cv. Lorenzo", "key": {"[1]": {"test_system": "maize plants", "assay": "Heat stress experiment with maize plants, seed dressing with active substance", "source_text": "Maize seeds cv. Lorenzo were dressed as in example 1 with the compound 4-cyclopropylaminocarbonyl-N-(2-methoxybenzoyl)benzenesulfonamide (=VIII-3) or treated only with solvent without active substance. The seedlings were raised for 10 days in the controlled-environment chamber under defined conditions, likewise as described in example 1.2×10 pots with maize plants were used for the heat stress experiment. The control group consisted of undressed plants (solvent), the test group of plants which had been dressed with active substance. To apply the heat stress conditions, both plant groups were placed for 2 days into a controlled-environment cabinet at 45′C, white light, long day (16 hours fight, 8 hours dark) and 70% atmospheric humidity. To avoid desiccation as the result of the high temperature, the plants were irrigated once per day from below by raising the water level in a tray. After the heat stress, it was observed that—especially in the control group—the shoots of many plants had collapsed and that the leaves were lying flat on the ground.\nThe experiment was valued quantitatively, taking into consideration the following criteria.\nAfter the heat treatment, the plants which had collapsed were counted and the result per pot was assessed:\nThereafter, all plants were grown on for 2 weeks under standard conditions. Then, the length increment of the individual plants was measured, and the survival rate of the plants per pot was determined: […]"}, "[2]": {"test_system": "Zm.18682.1.A1_at unknown protein", "assay": "Gene expression profiling (maize genome array), drought stress", "conditions": "vs unstressed solvent-dressed control", "description": "(§1) Maize seeds cv. Lorenzo were dressed as described in example 1 with the compound VIII-3 (=4-cyclopropylaminocarbonyl-N-(2-methoxybenzoyl)benzenesulfonamide) or with solvent. The plants were raised for 10 days in a controlled-environment chamber (conditions: see example 1).\n(§2) Thereafter, the plants were exposed to the following stress conditions: • (1) Heat stress: 6 h at 45° C. • (2) Drought stress: 7 days without irrigation, 24° C.\n(§3) The control plants of the specific experimental group were kept under the standard conditions described in example 1 (temperature, irrigation).\n(§4) After the stress treatment, the leaves of the stressed plants and of the unstressed control plants were harvested, shock-frozen in liquid nitrogen and stored at −80° C. until processed. All experiments were carried out in replications of in each case 2 pots.\n(§5) The labeled RNA probes for the DNA chip hybridization were prepared as described in the protocols (Expression Analysis. Technical Manual) from Affymetrix (Affymetrix Inc., 3380 Central Expressway, Santa Clara, Calif., USA). First, total RNA was isolated from in each case 500 mg of the harvested leaves. In each case 10 μg of total RNA were used for the cDNA first- and second-strand synthesis. The cDNA was amplified with T7 polymerase and simultaneously labeled with biotin-UTP. In each case 20 μg of this biotinylated […] were employed for the hybridization of the maize genome array from Affymetrix. This DNA microarray contains DNA sequences whose totality represents 13339 genes. Thereafter, the DNA microarrays were washed in the Affymetrix Fluidics Station, stained with streptavidin/phycoerythrin (Molecular Probes, P/N S-866) and scanned with the appropriate Agilent Laser Scanner (Agilent Gene Array Scanner). The fluorescence data obtained were analyzed using Affymetrix's Microarray Suite 5 software. After the quality assurance had been performed, all DNA chip analyses were stored in a database. To determine relevant expression values (induction factors, repression factors), the absolute expression values of the genes from the respective stress experiments were compared with the values of the respective control experiments (i.e. without abiotic stress and solvent-dressing only), based on the scoring function predetermined by the Affymetrix software. The resulting 4 expression values per gene were averaged by calculating the median value. These median values are shown in the results tables as induction factors. Similarity comparisons of expression profiles of various experiments and cluster analyses were carried out using the “genedata expressionist” software from Genedata (Genedata, Maulbeerstr. 46, CH-4016 Basel, Switzerland).\n(§6) The induction patterns derived from table 5 and which are shown directly by the resulting expression values show characteristic inductions by the action of the compound 4-cyclopropylaminocarbonyl-N-(2-methoxybenzoyl)benzenesulfonamide (=VIII-3), the effect on the putative N-carbamyl-L-amino acid amidohydrolase [Zm.11840.1.A1_at] and on the putative serine carboxypeptidase [Zm18994.2.A1-at] being most pronounced. • b) Under dried stress conditions, i.e. the tested maize plants (dressed with 2 mg a.i. 4-cyclopropylaminocarbonyl-N-(2-methoxybenzoyl)benzenesulfonamide/g seeds) were exposed to a temperature of 24° C. for 7 hours 7 days after germination.\n(§7) • Condition A: drought stress (7 days, 24° C.) • Condition B: Seeds dressed with 4-cyclopropylaminocarbonyl-N-(2-methoxybenzoyl)benzenesulfonamide (VIII-3)/NO drought stress • Condition C: Seeds dressed with 4-cyclopropylaminocarbonyl-N-(2-methoxybenzoyl)benzenesulfonamide (VIII-3)+drought stress (7 days, 24° C.)."}, "[3]": {"test_system": "Zm.10097.1.A1_at expressed protein", "assay": "Gene expression profiling (maize genome array), drought stress", "conditions": "vs unstressed solvent-dressed control", "description": "as §1, §2, §3, §4, §5, §6, §7"}, "[4]": {"test_system": "Zm.818.1.A1_at universal stress protein", "assay": "Gene expression profiling (maize genome array), drought stress", "conditions": "vs unstressed solvent-dressed control", "description": "as §1, §2, §3, §4, §5, §6, §7"}, "[5]": {"test_system": "Zm.818.2.A1_at expressed protein", "assay": "Gene expression profiling (maize genome array), drought stress", "conditions": "vs unstressed solvent-dressed control", "description": "as §1, §2, §3, §4, §5, §6, §7"}, "[6]": {"test_system": "Zm.13229.1.S1_at NBS-LRR type disease resistance protein O2 (fragment)", "assay": "Gene expression profiling (maize genome array), drought stress", "conditions": "vs unstressed solvent-dressed control", "description": "as §1, §2, §3, §4, §5, §6, §7"}, "[7]": {"test_system": "Zm.3633.4.A1_at wound induced protein (fragment)", "assay": "Gene expression profiling (maize genome array), drought stress", "conditions": "vs unstressed solvent-dressed control", "description": "as §1, §2, §3, §4, §5, §6, §7"}, "[8]": {"test_system": "Zm.12035.1.A1_at similar to AT3G10120", "assay": "Gene expression profiling (maize genome array), drought stress", "conditions": "vs unstressed solvent-dressed control", "description": "as §1, §2, §3, §4, §5, §6, §7"}, "[9]": {"test_system": "Zm.485.1.A1_at non-symbiotic hemoglobin (HBT) (ZEAMP GLB1)", "assay": "Gene expression profiling (maize genome array), drought stress", "conditions": "vs unstressed solvent-dressed control", "description": "as §1, §2, §3, §4, §5, §6, §7"}, "[10]": {"test_system": "Zm.18273.1.S1_at regulatory protein-like", "assay": "Gene expression profiling (maize genome array), drought stress", "conditions": "vs unstressed solvent-dressed control", "description": "as §1, §2, §3, §4, §5, §6, §7"}, "[11]": {"conditions": "seeds dressed, after heat stress"}, "[12]": {"conditions": "seeds dressed with VIII-3 (2 mg a.i./g seeds), NO drought stress"}, "[13]": {"conditions": "seeds dressed with VIII-3 + drought stress (7 days, 24° C.)"}}}
{"smiles": "COc1ccccc1C(=O)NS(=O)(=O)c1ccc(C(=O)NC2CC2)cc1", "note": "[VIII-3, 4-cyclopropylaminocarbonyl-N-(2-methoxybenzoyl)benzenesulfonamide]", "values": [{"measurement": "Interim score (collapsed plants)", "setting": "[1]; +S/+H: seeds dressed, heat stress 2 days 45° C, one symbol per pot (10 pots)", "result": "◯◯◯◯◯◯◯◯◯◯"}, {"measurement": "\"standing\" of the plants after heat stress", "setting": "[1]; [11]", "result": "considerably better"}, {"measurement": "survival rate compared with the control group", "setting": "[1]; [11]", "result": "significantly higher"}, {"measurement": "induction factor Zm.18682.1.A1_at, Condition B", "setting": "[2]; [12]", "result": 1.12}, {"measurement": "induction factor Zm.18682.1.A1_at, Condition C", "setting": "[2]; [13]", "result": 4.19}, {"measurement": "induction factor Zm.10097.1.A1_at, Condition B", "setting": "[3]; [12]", "result": 1.27}, {"measurement": "induction factor Zm.10097.1.A1_at, Condition C", "setting": "[3]; [13]", "result": 3.29}, {"measurement": "induction factor Zm.818.1.A1_at, Condition B", "setting": "[4]; [12]", "result": 1.12}, {"measurement": "induction factor Zm.818.1.A1_at, Condition C", "setting": "[4]; [13]", "result": 8.47}, {"measurement": "induction factor Zm.818.2.A1_at, Condition B", "setting": "[5]; [12]", "result": 1.10}, {"measurement": "induction factor Zm.818.2.A1_at, Condition C", "setting": "[5]; [13]", "result": 5.40}, {"measurement": "induction factor Zm.13229.1.S1_at, Condition B", "setting": "[6]; [12]", "result": 1.02}, {"measurement": "induction factor Zm.13229.1.S1_at, Condition C", "setting": "[6]; [13]", "result": 3.39}, {"measurement": "induction factor Zm.3633.4.A1_at, Condition B", "setting": "[7]; [12]", "result": 0.74}, {"measurement": "induction factor Zm.3633.4.A1_at, Condition C", "setting": "[7]; [13]", "result": 3.03}, {"measurement": "induction factor Zm.12035.1.A1_at, Condition B", "setting": "[8]; [12]", "result": 0.90}, {"measurement": "induction factor Zm.12035.1.A1_at, Condition C", "setting": "[8]; [13]", "result": 3.66}, {"measurement": "induction factor Zm.485.1.A1_at, Condition B", "setting": "[9]; [12]", "result": 1.00}, {"measurement": "induction factor Zm.485.1.A1_at, Condition C", "setting": "[9]; [13]", "result": 5.49}, {"measurement": "induction factor Zm.18273.1.S1_at, Condition B", "setting": "[10]; [12]", "result": 0.95}, {"measurement": "induction factor Zm.18273.1.S1_at, Condition C", "setting": "[10]; [13]", "result": 2.91}]}
